Test results published in patent publication US7157083B2, “Compositions and methods for treating retroviral infections” (priority 1998, dated 2007).
Like-named read-outs stand apart in the source and are kept apart here.

Key:
HIV-1 [1] = conditions: Assay #6
Procedure: (§1) Reverse transcriptase (RT) activity was measured in cell-free supernatants. Tritiated thymidine triphosphate (NEN) (TTP) was resuspended in distilled H2O at 5 Cl/mL. Poly rA and oligo dT were prepared as a stock solution which was kept at −20° C. The RT reaction buffer was prepared fresh on a daily basis and consists of 125 μL 1.0 M EGTA, 125 μL d H2O, 110 μL 10% SDS, 50 μL 1.0 M Tris (pH 7.4), 50 μL 1.0 M DTT, and 40μ1.0 M MgCl2. These three solutions were mixed together in a ratio of 2 parts TTP, 1 part poly rA:oligo dT, and 1 part reaction buffer. Ten microliters of this reaction mixture was placed in a round bottom microtiter plate and 15 μL of virus containing supernatant was added and mixed. The plate was incubated at 37° C. in a water bath with a solid support to prevent submersion of the plate and incubated for 60 minutes. Following reaction, the reaction volume was spotted onto pieces of DE81 paper, washed 5 times for 5 minutes each in a 5% sodium phosphate buffer, 2 times for 1 minute each in distilled water, 2 times for 1 minute each in 70% ethanol, and then dried. Opti-Fluor O was added to each sample and incorporated radioactivity was quantitated utilizing a Wallace 1450 Microbetaplus liquid scintillation counter.

HIV-1 [2] = conditions: for % Control, Sum / Mean RT, Sum: Sum over 20, 10, 5 mg/mL
Procedure: Reverse transcriptase (RT) activity was measured in cell-free supernatants. Tritiated thymidine triphosphate (NEN) (TTP) was resuspended in distilled H2O at […]. Poly rA and oligo dT were prepared as a stock solution which was kept at −20° C. The RT reaction buffer was prepared fresh on a daily basis and consists of 125 μL 1.0 M EGTA, 125 μL d H2O, 110 μL 10% SDS, 50 μL 1.0 M Tris (pH 7.4), 50 μL 1.0 M DTT, and 40μ1.0 M MgCl2. These three solutions were mixed together in a ratio of 2 parts TTP, 1 part poly rA:oligo dT, and 1 part reaction buffer. Ten microliters of this reaction mixture was placed in a round bottom microtiter plate and 15 μL of virus containing supernatant was added and mixed. The plate was incubated at 37° C. in a water bath with a solid support to prevent submersion of the plate and incubated for 60 minutes. Following reaction, the reaction volume was spotted onto pieces of DE81 paper, washed 5 times for 5 minutes each in a 5% sodium phosphate buffer, 2 times for 1 minute each in distilled water, 2 times for 1 minute each in 70% ethanol, and then dried. Opti-Fluor O was added to each sample and incorporated radioactivity was quantitated utilizing a Wallace 1450 Microbetaplus liquid scintillation counter.
Control groups were not treated with the enzyme. The virus was then titrated on macrophage/monocyte cultures and incubated at 37° C. for 48 hours at which time the macrophages and monocytes were washed 3×, resuspended and placed in fresh wells. Naïve PBMC's were overlayed on the macrophage/monocyte cultures and incubated at 37° C. for 72 hours. The PBMC's were then separated, washed and placed in fresh wells with fresh medium and rested for 48 hours. After a 48 hour rest period, the PBMC's were challenged with HIV-1 with and without PHA, I1-2, or both. […] These various assays are presented below in Table 10 .

PBMCs = test: Study 4 sensitization: cell viability; assay type: cell-based, human
Procedure: Percent virus control (% VC) in the following tables is the mean RT activity (cpm) as a percentage of a virus control. Percent cell control (% CC) is the mean XTT absorbance as a percentage of a cell control.
The macrophage plates were then washed with HBSS multiple times. Fresh mixed pha blast PBMCs (5×10e4/well) were placed on the macrophage cells, allowed to incubate for 72 hours and then harvested and reset in a fresh 96 well plate. The PBMCs were then challenged overnight with the respective virus (IIIB or Rojo) at a standard MOI for that virus. The PBMCs were 5× in plate spin washed with DPBS, incubated 24 hours, at which time 5×10e4 fresh pha blast PBMCs/well were added. The culture was incubated an additional 6 days and then assayed for RT activity.
Where viability corrections were conducted, they were performed by dividing the RT CPM value by the toxicity absorbance in order to compensate for well to well variations noted in the cell titer toxicity noted.

HIV-1 [3] = conditions: Assay #5
Procedure: as §1

For Hyaluronidase, the “% Control” value (HIV-1 [1]; 5 mg/mL) was 54.1%, the “Mean RT” value (HIV-1 [1]; 5 mg/mL) was 12279.7 cpm and the “% Control” value (HIV-1 [1]; 10 mg/mL) was 49.6%. For the same substance, the “Mean RT” value (HIV-1 [1]; 10 mg/mL) was 11244.7 cpm, the “% Control” value (HIV-1 [1]; 20 mg/mL) was 19.5% and the “Mean RT” value (HIV-1 [1]; 20 mg/mL) was 4430.7 cpm. The “% Control, Sum” value (HIV-1 [1]; Sum over 20, 10, 5 mg/mL) was 123.2%, the “Mean RT, Sum” value (HIV-1 [1]; Sum over 20, 10, 5 mg/mL) was 27955.1 cpm and the “% Control” value (HIV-1 [2]; Assay #1, 5 mg/mL) was 97.3%. For the same substance, the “Mean RT” value (HIV-1 [2]; Assay #1, 5 mg/mL) was 20882.7 cpm, the “% Control” value (HIV-1 [2]; Assay #1, 10 mg/mL) was 27.9% and the “Mean RT” value (HIV-1 [2]; Assay #1, 10 mg/mL) was 6000 cpm. For the same substance, the “% Control” value (HIV-1 [2]; Assay #1, 20 mg/mL) was 16.9%, the “Mean RT” value (HIV-1 [2]; Assay #1, 20 mg/mL) was 3635.7 cpm and the “% Control, Sum” value (HIV-1 [2]; Assay #1) was 142.1%. The “Mean RT, Sum” value (HIV-1 [2]; Assay #1) was 30518.4 cpm, the “% Control” value (HIV-1 [2]; Assay #2, 5 mg/mL) was 20.6% and the “Mean RT” value (HIV-1 [2]; Assay #2, 5 mg/mL) was 6548.3 cpm. The “% Control” value (HIV-1 [2]; Assay #2, 10 mg/mL) was 26.4%, the “Mean RT” value (HIV-1 [2]; Assay #2, 10 mg/mL) was 8391.3 cpm and the “% Control” value (HIV-1 [2]; Assay #2, 20 mg/mL) was 10.4%. The “Mean RT” value (HIV-1 [2]; Assay #2, 20 mg/mL) was 3298.3 cpm, the “% Control, Sum” value (HIV-1 [2]; Assay #2) was 57.4% and the “Mean RT, Sum” value (HIV-1 [2]; Assay #2) was 18237.9 cpm. The “% Control” value (HIV-1 [2]; Assay #3, 5 mg/mL) was 42.7%, the “Mean RT” value (HIV-1 [2]; Assay #3, 5 mg/mL) was 5641.7 cpm and the “% Control” value (HIV-1 [2]; Assay #3, 10 mg/mL) was 91.2%. For the same substance, the “Mean RT” value (HIV-1 [2]; Assay #3, 10 mg/mL) was 12058 cpm, the “% Control” value (HIV-1 [2]; Assay #3, 20 mg/mL) was 90.3% and the “Mean RT” value (HIV-1 [2]; Assay #3, 20 mg/mL) was 11940.7 cpm. The “% Control, Sum” value (HIV-1 [2]; Assay #3) was 224.2%, the “Mean RT, Sum” value (HIV-1 [2]; Assay #3) was 29640.4 cpm and the “% Control” value (HIV-1 [2]; Assay #4, 5 mg/mL) was 1.9%. The “Mean RT” value (HIV-1 [2]; Assay #4, 5 mg/mL) was 247.3 cpm, the “% Control” value (HIV-1 [2]; Assay #4, 10 mg/mL) was 22.4% and the “Mean RT” value (HIV-1 [2]; Assay #4, 10 mg/mL) was 2973.7 cpm. The “% Control” value (HIV-1 [2]; Assay #4, 20 mg/mL) was 29.9%, the “Mean RT” value (HIV-1 [2]; Assay #4, 20 mg/mL) was 3961.7 cpm and the “% Control, Sum” value (HIV-1 [2]; Assay #4) was 54.2%. For the same substance, the “Mean RT, Sum” value (HIV-1 [2]; Assay #4) was 7182.7 cpm, the “% Control” value (HIV-1 [2]; Assay #9, 5 mg/mL) was 137.4% and the “Mean RT” value (HIV-1 [2]; Assay #9, 5 mg/mL) was 11038 cpm. The “% Control” value (HIV-1 [2]; Assay #9, 10 mg/mL) was 128.8%, the “Mean RT” value (HIV-1 [2]; Assay #9, 10 mg/mL) was 10344 cpm and the “% Control” value (HIV-1 [2]; Assay #9, 20 mg/mL) was 96.2%. The “Mean RT” value (HIV-1 [2]; Assay #9, 20 mg/mL) was 7725.7 cpm, the “% Control, Sum” value (HIV-1 [2]; Assay #9) was 362.4% and the “Mean RT, Sum” value (HIV-1 [2]; Assay #9) was 29107.7 cpm. The “% Control” value (HIV-1 [2]; Assay #10, 5 mg/mL) was 230.8%, the “Mean RT” value (HIV-1 [2]; Assay #10, 5 mg/mL) was 13715.3 cpm and the “% Control” value (HIV-1 [2]; Assay #10, 10 mg/mL) was 122.2%. The “Mean RT” value (HIV-1 [2]; Assay #10, 10 mg/mL) was 7258.7 cpm, the “% Control” value (HIV-1 [2]; Assay #10, 20 mg/mL) was 61.1% and the “Mean RT” value (HIV-1 [2]; Assay #10, 20 mg/mL) was 3633.7 cpm. For the same substance, the “% Control, Sum” value (HIV-1 [2]; Assay #10) was 414.1%, the “Mean RT, Sum” value (HIV-1 [2]; Assay #10) was 24607.7 cpm and the “% Control” value (HIV-1 [2]; Assay #11, 5 mg/mL) was 63.2%. For the same substance, the “Mean RT” value (HIV-1 [2]; Assay #11, 5 mg/mL) was 17826.3 cpm, the “% Control” value (HIV-1 [2]; Assay #11, 10 mg/mL) was 75.3% and the “Mean RT” value (HIV-1 [2]; Assay #11, 10 mg/mL) was 21230 cpm. The “% Control” value (HIV-1 [2]; Assay #11, 20 mg/mL) was 30.1%, the “Mean RT” value (HIV-1 [2]; Assay #11, 20 mg/mL) was 8496.3 cpm and the “% Control, Sum” value (HIV-1 [2]; Assay #11) was 168.6%. The “Mean RT, Sum” value (HIV-1 [2]; Assay #11) was 47552.6 cpm, the “% Control” value (HIV-1 [2]; Assay #12, 5 mg/mL) was 118.3% and the “Mean RT” value (HIV-1 [2]; Assay #12, 5 mg/mL) was 17657 cpm. For the same substance, the “% Control” value (HIV-1 [2]; Assay #12, 10 mg/mL) was 39.8%, the “Mean RT” value (HIV-1 [2]; Assay #12, 10 mg/mL) was 5946.7 cpm and the “% Control” value (HIV-1 [2]; Assay #12, 20 mg/mL) was 56.1%. The “Mean RT” value (HIV-1 [2]; Assay #12, 20 mg/mL) was 8382 cpm, the “% Control, Sum” value (HIV-1 [2]; Assay #12) was 214.2% and the “Mean RT, Sum” value (HIV-1 [2]; Assay #12) was 31985.7 cpm. For the same substance, the “cell viability % CC” value (PBMCs; 0.097656 μg/mL, GP120IIIB Sensitized, Standard) was 167.6%, the “cell viability % CC” value (PBMCs; 0.097656 μg/mL, IIIB Sensitized, Standard) was 138.2% and the “cell viability % CC” value (PBMCs; 0.390625 μg/mL, GP120IIIB Sensitized, Turpin) was 67.6%. The “cell viability % CC” value (PBMCs; 1.5625 μg/mL, GP120IIIB Sensitized, Turpin) was 73.4%, the “cell viability % CC” value (PBMCs; 6.25 μg/mL, GP120IIIB Sensitized, Turpin) was 73.2% and the “cell viability % CC” value (PBMCs; 6.25 μg/mL, IIIB Sensitized, Standard) was 133.5%. For the same substance, the “cell viability % CC” value (PBMCs; 25 μg/mL, Rojo Sensitized, Turpin) was 75.0%, the “cell viability % CC” value (PBMCs; Table 9, 0.097656 μg/mL, GP120IIIB Sensitized, Standard) was 167.6% and the “cell viability % CC” value (PBMCs; Table 9, 0.097656 μg/mL, IIIB Sensitized, Standard) was 138.2%. The “cell viability % CC” value (PBMCs; Table 9, 0.390625 μg/mL, GP120IIIB Sensitized, Turpin) was 67.6%, the “cell viability % CC” value (PBMCs; Table 9, 1.5625 μg/mL, GP120IIIB Sensitized, Turpin) was 73.4% and the “cell viability % CC” value (PBMCs; Table 9, 6.25 μg/mL, GP120IIIB Sensitized, Turpin) was 73.2%. For the same substance, the “cell viability % CC” value (PBMCs; Table 9, 6.25 μg/mL, IIIB Sensitized, Standard) was 133.5%, the “cell viability % CC” value (PBMCs; Table 9, 25 μg/mL, Rojo Sensitized, Turpin) was 75.0% and the “% Control” value (HIV-1 [3]; 5 mg/mL) was 65.1%. The “Mean RT” value (HIV-1 [3]; 5 mg/mL) was 12442.7 cpm, the “% Control” value (HIV-1 [3]; 10 mg/mL) was 58.3% and the “Mean RT” value (HIV-1 [3]; 10 mg/mL) was 11156.3 cpm. For the same substance, the “% Control” value (HIV-1 [3]; 20 mg/mL) was 18.5%, the “% Control, Sum” value (HIV-1 [3]; Sum over 20, 10, 5 mg/mL) was 141.9% and the “Mean RT, Sum” value (HIV-1 [3]; Sum over 20, 10, 5 mg/mL) was 23599 cpm.
